Tested on: NB-4
Assay: Induction of mitochondrial membrane potential loss in human NB4 cells by JC1 staining based flow cytometry (reference value: 27.7%)
Format: functional

`N#CC(C#N)=NNc1cccc(Cl)c1` [CARBONYL CYANIDE M-CHLOROPHENYLHYDRAZONE] was tested, and the Activity was 93%.

Source: ChEMBL document CHEMBL4330144, “A mitochondria-targeted organic arsenical accelerates mitochondrial metabolic disorder and function injury” (Bioorg Med Chem, 2019)
